Laboratory results published in patent publication US9533987B2, “Heterocyclic derivates” (KALVISTA PHARMACEUTICALS LIMITED, priority 2013, dated 2017).

How the values were obtained:
Human KLK1 = Human KLK1 (Homo sapiens (Human), UniProt P06870); assay: Determination of the IC50 for KLK1 (fluorogenic substrate H-DVal-Leu-Arg-AFC); format: biochemical; conditions: 37° C.
Procedure: Determination of the IC50 for KLK1
(§1) Human KLK1 (Callbiochem) was incubated at 37° C. with the fluorogenic substrate H-DVal-Leu-Arg-AFC and various concentrations of the test compound. Residual enzyme activity (initial rate of reaction) was determined by measuring the change in […] at 410 nm and the IC50 value for the test compound was determined.

Human plasma kallikrein = Human plasma kallikrein (Homo sapiens (Human), UniProt P03952); assay: Determination of the IC50 for plasma kallikrein (fluorogenic substrate H-DPro-Phe-Arg-AFC); format: biochemical; conditions: 37° C., read-out: IC50 (human PKaI)
Human plasma kallikrein, sequence (P03952 391-638): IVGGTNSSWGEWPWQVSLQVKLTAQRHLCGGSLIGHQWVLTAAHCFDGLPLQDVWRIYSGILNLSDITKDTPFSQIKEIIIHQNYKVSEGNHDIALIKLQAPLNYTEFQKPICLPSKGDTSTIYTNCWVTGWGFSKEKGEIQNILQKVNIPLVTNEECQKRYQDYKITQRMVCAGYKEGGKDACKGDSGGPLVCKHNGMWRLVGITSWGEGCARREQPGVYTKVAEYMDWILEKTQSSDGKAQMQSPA
Human plasma kallikrein, sequence (P03952 20-390 partner): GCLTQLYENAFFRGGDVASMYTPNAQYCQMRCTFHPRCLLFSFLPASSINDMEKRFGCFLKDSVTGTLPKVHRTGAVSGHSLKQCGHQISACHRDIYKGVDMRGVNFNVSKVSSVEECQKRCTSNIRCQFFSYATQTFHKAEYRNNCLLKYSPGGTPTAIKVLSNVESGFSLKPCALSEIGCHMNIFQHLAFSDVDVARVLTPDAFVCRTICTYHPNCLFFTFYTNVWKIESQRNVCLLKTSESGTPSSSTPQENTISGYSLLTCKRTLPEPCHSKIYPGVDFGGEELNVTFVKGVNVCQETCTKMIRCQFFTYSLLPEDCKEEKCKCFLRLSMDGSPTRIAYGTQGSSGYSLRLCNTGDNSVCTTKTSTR
Procedure: Determination of the IC50 for Plasma Kallikrein
as §1, with “plasma kallikrein (Protogen)” for “KLK1 (Callbiochem)”, “H-DPro-Phe-Arg-AFC” for “H-DVal-Leu-Arg-AFC”

Human KLK1, sequence (P06870 25-262): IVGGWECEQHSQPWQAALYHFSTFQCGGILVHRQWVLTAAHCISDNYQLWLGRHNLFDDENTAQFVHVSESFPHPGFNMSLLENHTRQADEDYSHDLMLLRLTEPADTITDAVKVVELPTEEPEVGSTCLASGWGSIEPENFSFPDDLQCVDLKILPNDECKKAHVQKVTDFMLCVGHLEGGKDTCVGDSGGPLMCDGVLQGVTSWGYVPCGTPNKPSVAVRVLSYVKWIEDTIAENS

SMILES | IC50 (Human KLK1) | IC50 (Human plasma kallikrein)
Cc1cc(C(=O)NCc2cnc3[nH]ccc3c2)c(C)n1Cc1csc(-c2ccccc2)n1 [Example 3, 2,5-Dimethyl-1-(2-phenyl-thiazol-4-ylmethyl)-1H-pyrrole-3-carboxylic acid (1H-pyrrolo[2,3-b]pyridin-5-ylmethyl)-amide] | > 10 µM | 2.69 µM
O=C(NCc1cnc2[nH]ccc2c1)c1cn(Cc2ccc(Cn3ccccc3=O)cc2)nc1C(F)(F)F [Example 7, 1-[4-(2-Oxo-2H-pyridin-1-ylmethyl)-benzyl]-3-trifluoromethyl-1H-pyrazole-4-carboxylic acid (1H-pyrrolo[2,3-b]pyridin-5-ylmethyl)-amide] | > 10 µM | 0.00538 µM
Cc1nc2[nH]ccc2c(C)c1CNC(=O)c1cn(Cc2ccc(Cn3ccccc3=O)cc2)nc1C(F)(F)F [Example 8, 1-[4-(2-Oxo-2H-pyridin-1-ylmethyl)-benzyl]-3-trifluoromethyl-1H-pyrazole-4-carboxylic acid (4,6-dimethyl-1H-pyrrolo[2,3-b]pyridin-5-ylmethyl)-amide] | > 10 µM | 0.00372 µM
Cc1cnn(Cc2ccc(Cn3c(C)cc(C(=O)NCc4ccc5c(N)nccc5c4)c3C)cc2)c1 [Example 9, 2,5-Dimethyl-1-[4-(4-methyl-pyrazol-1-ylmethyl)-benzyl]-1H-pyrrole-3-carboxylic acid (1-amino-isoquinolin-6-ylmethyl)-amide] | > 10 µM | 0.0143 µM
Cc1cnn(Cc2ccc(Cn3cnc(C(=O)NCc4ccc5c(N)nccc5c4)c3)cc2)c1 [Example 10, 1-[4-(4-Methyl-pyrazol-1-ylmethyl)-benzyl]-1H-imidazole-4-carboxylic acid (1-amino-isoquinolin-6-ylmethyl)-amide] | > 10 µM | 0.0024 µM
Cc1cnn(Cc2ccc(Cn3cc(C(=O)NCc4ccc5c(N)nccc5c4)c(CO)n3)cc2)c1 [Example 15, 3-Hydroxymethyl-1-[4-(4-methyl-pyrazol-1-ylmethyl)-benzyl]-1H-pyrazole-4-carboxylic acid (1-amino-isoquinolin-6-ylmethyl)-amide] | 6.64 µM | 0.00117 µM
Cc1cnn(Cc2ccc(Cn3cc(C(=O)NCc4ccc5c(N)nccc5c4)c(C#N)n3)cc2)c1 [Example 16, 3-Cyano-1-[4-(4-methyl-pyrazol-1-ylmethyl)-benzyl]-1H-pyrazole-4-carboxylic acid (1-amino-isoquinolin-6-ylmethyl)-amide] | 5.73 µM | 0.00074 µM
Cc1cnn(Cc2ccc(Cn3cc(C(=O)NCc4ccc5c(N)nccc5c4)c(C(=O)O)n3)cc2)c1 [Example 17, 4-[(1-Amino-isoquinolin-6-ylmethyl)-carbamoyl]-1-[4-(4-methyl-pyrazol-1-ylmethyl)-benzyl]-1H-pyrazole-3-carboxylic acid] | > 10 µM | 1.19 µM
Cc1cnn(Cc2ccc(Cn3cc(C(=O)NCc4ccc5c(N)nccc5c4)c(=O)[nH]3)cc2)c1 [Example 19, 1-[4-(4-Methyl-pyrazol-1-ylmethyl)-benzyl]-3-oxo-2,3-dihydro-1H-pyrazole-4-carboxylic acid (1-amino-isoquinolin-6-ylmethyl)-amide] | > 10 µM | 0.994 µM
Cc1cnn(Cc2ccc(Cn3cc(C(=O)NCc4ccc5c(N)nccc5c4)c(-c4c(C)noc4C)n3)cc2)c1 [Example 20, 3-(3,5-Dimethyl-isoxazol-4-yl)-1-[4-(4-methyl-pyrazol-1-ylmethyl)-benzyl]-1H-pyrazole-4-carboxylic acid (1-amino-isoquinolin-6-ylmethyl)-amide] | > 10 µM | 0.00089 µM
Cc1cnn(Cc2ccc(Cn3cc(C(=O)NCc4ccc5c(N)nccc5c4)c(N4CCOCC4)n3)cc2)c1 [Example 21, 1-[4-(4-Methyl-pyrazol-1-ylmethyl)-benzyl]-3-morpholin-4-yl-1H-pyrazole-4-carboxylic acid (1-amino-isoquinolin-6-ylmethyl)-amide] | > 10 µM | 0.00646 µM
COc1cc(Cn2cc(C(=O)NCc3ccc4c(N)nccc4c3)c(C3CC3)n2)cnc1N1CCCC1 [Example 25, 3-Cyclopropyl-1-(5-methoxy-6-pyrrolidin-1-yl-pyridin-3-ylmethyl)-1H-pyrazole-4-carboxylic acid (1-amino-isoquinolin-6-ylmethyl)-amide] | 2.21 µM | 0.00731 µM
CCOc1ccc(Cn2cc(C(=O)NCc3ccc4c(N)nccc4c3)c(-c3ccccc3)n2)cn1 [Example 26, 1-(6-Ethoxy-pyridin-3-ylmethyl)-3-phenyl-1H-pyrazole-4-carboxylic acid (1-amino-isoquinolin-6-ylmethyl)-amide] | 4.73 µM | 0.205 µM
CCOc1ccc(Cn2cc(C(=O)NCc3ccc4c(N)nccc4c3)c(NC(=O)COC)n2)cn1 [Example 27, 1-(6-Ethoxy-pyridin-3-ylmethyl)-3-(2-methoxy-acetylamino)-1H-pyrazole-4-carboxylic acid (1-amino-isoquinolin-6-ylmethyl)-amide] | 3.2 µM | 0.128 µM
CCn1c(C(=O)NCc2ccc3c(N)nccc3c2)cc(C)c1Cc1csc(-c2ccccc2)n1 [Example 29, 1-Ethyl-4-methyl-5-(2-phenyl-thiazol-4-ylmethyl)-1H-pyrrole-2-carboxylic acid (1-amino-isoquinolin-6-ylmethyl)-amide] | > 10 µM | 0.62 µM
Cc1cnn(Cc2ccc(Cn3cc(C(=O)NCc4ccc5c(N)nccc5c4)cn3)cc2)c1 [Example 31, 1-[4-(4-Methyl-pyrazol-1-ylmethyl)-benzyl]-1H-pyrazole-4-carboxylic acid (1-amino-isoquinolin-6-ylmethyl)-amide] | > 10 µM | 0.002 µM
Cc1cnn(Cc2ccc(Cn3cc(C(=O)NCc4ccc5c(N)nccc5c4)c(-c4ccsc4)n3)cc2)c1 [Example 42, 1-[4-(4-Methyl-pyrazol-1-ylmethyl)-benzyl]-3-thiophen-3-yl-1H-pyrazole-4-carboxylic acid (1-amino-isoquinolin-6-ylmethyl)-amide] | 9.05 µM | 0.00485 µM
Nc1nccc2cc(CNC(=O)c3cnn(Cc4ccc(Cn5cccn5)cc4)c3N)ccc12 [Example 53, 5-Amino-1-(4-pyrazol-1-ylmethyl-benzyl)-1H-pyrazole-4-carboxylic acid (1-amino-isoquinolin-6-ylmethyl)-amide] | > 10 µM | 0.0168 µM
C[C@@H]1CCN(c2ccc(Cn3cc(C(=O)NCc4ccc5c(N)nccc5c4)c(C(F)(F)F)n3)cn2)C1 [Example 58, 1-[6-((R)-3-Methyl-pyrrolidin-1-yl)-pyridin-3-ylmethyl]-3-trifluoromethyl-1H-pyrazole-4-carboxylic acid (1-amino-isoquinolin-6-ylmethyl)-amide] | 3.11 µM | 0.0133 µM
Nc1nccc2cc(CNC(=O)c3cn(Cc4cnc(N5CCCC5)nc4)nc3C(F)(F)F)ccc12 [Example 64, 1-(2-Pyrrolidin-1-yl-pyrimidin-5-ylmethyl)-3-trifluoromethyl-1H-pyrazole-4-carboxylic acid (1-amino-isoquinolin-6-ylmethyl)-amide] | 2.79 µM | 0.0104 µM
Nc1nccc2cc(CNC(=O)c3cn(Cc4cnc(N5CCCC5)cn4)nc3C(F)(F)F)ccc12 [Example 65, 1-(5-Pyrrolidin-1-yl-pyrazin-2-ylmethyl)-3-trifluoromethyl-1H-pyrazole-4-carboxylic acid (1-amino-isoquinolin-6-ylmethyl)-amide] | 0.96 µM | 0.0149 µM
CC(C)Oc1cc(Cn2cc(C(=O)NCc3ccc4c(N)nccc4c3)c(C(F)(F)F)n2)ccn1 [Example 66, 1-(2-Isopropoxy-pyridin-4-ylmethyl)-3-trifluoromethyl-1H-pyrazole-4-carboxylic acid (1-amino-isoquinolin-6-ylmethyl)-amide] | > 10 µM | 0.281 µM
Nc1nccc2cc(CNC(=O)c3cn(Cc4ccc(N5CCC(CO)C5)nc4)nc3C(F)(F)F)ccc12 (stereo not drawn) [Example 69, 1-[6-(3-Hydroxymethyl-pyrrolidin-1-yl)-pyridin-3-ylmethyl]-3-trifluoromethyl-1H-pyrazole-4-carboxylic acid (1-amino-isoquinolin-6-ylmethyl)-amide] | 4.74 µM | 0.0323 µM
Nc1nccc2cc(CNC(=O)c3cn(Cc4ccc(N5CC[C@@H](CO)C5)nc4)nc3C(F)(F)F)ccc12 [Example 70, 1-[6-((R)-3-Hydroxymethyl-pyrrolidin-1-yl)-pyridin-3-ylmethyl]-3-trifluoromethyl-1H-pyrazole-4-carboxylic acid (1-amino-isoquinolin-6-ylmethyl)-amide] | 4.91 µM | 0.0669 µM
CCCOc1ccc(Cn2cc(C(=O)NCc3ccc4c(N)nccc4c3)c(C(F)(F)F)n2)cn1 [Example 71, 1-(6-Propoxy-pyridin-3-ylmethyl)-3-trifluoromethyl-1H-pyrazole-4-carboxylic acid (1-amino-isoquinolin-6-ylmethyl)-amide] | > 10 µM | 0.0636 µM
CCC(C)Oc1ccc(Cn2cc(C(=O)NCc3ccc4c(N)nccc4c3)c(C(F)(F)F)n2)cn1 (stereo not drawn) [Example 72, 1-(6-sec-Butoxy-pyridin-3-ylmethyl)-3-trifluoromethyl-1H-pyrazole-4-carboxylic acid (1-amino-isoquinolin-6-ylmethyl)-amide] | > 10 µM | 0.118 µM
Nc1nccc2cc(CNC(=O)c3cn(Cc4cnc(N5CCCC5)c(F)c4)nc3C(F)(F)F)ccc12 [Example 73, 1-(5-Fluoro-6-pyrrolidin-1-yl-pyridin-3-ylmethyl)-3-trifluoromethyl-1H-pyrazole-4-carboxylic acid (1-amino-isoquinolin-6-ylmethyl)-amide] | 1.57 µM | 0.0226 µM
